≈ marks a conversion by molar mass, not a printed value. Read-outs that look alike come from different tables or passages of the source.
Legend:
[1] = system: chloroquine-sensitive Plasmodium falciparum (NF 54) parasites; assay: in vitro antimalarial potency, standard assay; assay type: cell-based; conditions: for IC50: Plasmodium falciparum, read-out: IC50 (nM), Antimalarial Activities in vitro
[2] = system: panel of 60 human cancer cell lines; assay: NCI panel of 60 human cancer cell lines, growth inhibition; assay type: cell-based; conditions: nanomolar to micromolar concentrations
From the text: Cell growth was inhibited in a dose-dependent manner.

[3] = system: normal ectocervical cells HCX (primary normal cervical cells); assay: XTT cell viability assay, normal cervical cells; assay type: cell-based, human
Method: Primary human ectocervical keratinocytes were derived from fresh cervical tissue obtained from the Cooperative Human Tissue Network (CHTN) within 24 hours after removal from patients undergoing hysterectomies for benign non-cervical uterine diseases. Standard overnight dispase treatment and subsequent trypsinization procedures were used to isolate ectocervical epithelial cells, which were cultured in serum-free keratinocyte medium (KSFM) supplemented with bovine pituitary extract and epidermal growth factor according to the manufacturer's protocol (Invitrogen, Carlsbad, Calif.). […]
(§1) Cell viability was determined using 2.5×10^3 cells were plated in triplicates in 96 well tissue culture microplates in the appropriate culture medium and incubated for 24 hours in a humidified atmosphere at 37° C., 5% CO2. […] Cell viability (absorbance) was measured using an ELISA reader at 450 nm with a reference wavelength at 650 nm. Results were calculated as the percentage of cultures exposed to solvent control only. […]
as §1, with “2.5×10^3” for “Cell viability was determined using 2.5×10^3”

[4] = system: human cervical cancer cell line HeLa; assay: XTT proliferation / cell viability assay, HeLa; assay type: cell-based; conditions: for IC50: Homo sapiens, XTT based assay, read-out: IC50, HeLa cells
GFP strain P. berghei = assay: in vivo antimalarial ED50 in mice, single administration SC or PO; conditions: for ED50: Plasmodium berghei, in Mus musculus; for overt toxicity / behavioral modification in the mice: single dose of 3, 10 or 30 mg/kg SC or PO
[5] = solubility in aqueous pH 7.4 buffer; assay type: physicochemical; conditions: aqueous pH 7.4 buffer solution, pH 7.4, 25° C.
[6] = system: malaria-infected mice (GFP strain P. berghei); assay: oral in vivo antimalarial activity in malaria-infected mice, three doses over three days
[7] = system: Plasmodium berghei infected mice; assay type: in vivo
[8] = chloroquine-sensitive P. falciparum NF 54, quadruplicates

C[C@@H]1CC[C@H]2[C@@H](C)C(=O)O[C@@H]3O[C@]4(C)CC[C@@H]1[C@]32OO4 [Artemisinin, artemisinin, reference compound]
IC50 [1, 8]: 6.6 ± 0.76 nM

C=C(CC[C@H]1O[C@@H]2O[C@@]3(C)CC[C@H]4[C@H](C)CC[C@@H]([C@H]1C)[C@@]24OO3)C(=C)CC[C@H]1O[C@@H]2O[C@@]3(C)CC[C@H]4[C@H](C)CC[C@@H]([C@H]1C)[C@@]24OO3 [dimer 4]
IC50 [1, 8]: 2.9 nM

COC(=O)c1cc(CC[C@H]2O[C@@H]3O[C@@]4(C)CC[C@H]5[C@H](C)CC[C@@H]([C@H]2C)[C@@]35OO4)c(CC[C@H]2O[C@@H]3O[C@@]4(C)CC[C@H]5[C@H](C)CC[C@@H]([C@H]2C)[C@@]35OO4)cc1C(=O)OC [dimer 5]
preliminary growth inhibitory activity, selectivity in the panel [2]: extremely selective and highly potent at inhibiting the growth of only non-small cell lung carcinoma HOP-92 cells, melanoma SK-MEL-5 cells, and breast cancer BT-549 cells | toxicity to primary normal cervical cells [3]: without being toxic | IC50 [1, 8]: 1.6 nM | times more potent than trioxane monomer DHA [4]: 10-20 times | IC50 [4]: 500 nM | ED50 (GFP strain P. berghei; sc, read-out: SC ED50): 0.71 mg/kg | overt toxicity / behavioral modification in the mice (GFP strain P. berghei): Neither over toxicity nor behavioral modification was observed

C[C@H]1[C@@H](CCc2cc(C(=O)O)c(C(=O)O)cc2CC[C@H]2O[C@@H]3O[C@@]4(C)CC[C@H]5[C@H](C)CC[C@@H]([C@H]2C)[C@@]35OO4)O[C@@H]2O[C@@]3(C)CC[C@H]4[C@H](C)CC[C@@H]1[C@@]24OO3 [dimer 6]
IC50 [1, 8]: 360 nM | solubility [5]: ~14 mg/mL (≈ 18.5 mM)

C[C@H]1[C@@H](CCc2cc(CO)c(CO)cc2CC[C@H]2O[C@@H]3O[C@@]4(C)CC[C@H]5[C@H](C)CC[C@@H]([C@H]2C)[C@@]35OO4)O[C@@H]2O[C@@]3(C)CC[C@H]4[C@H](C)CC[C@@H]1[C@@]24OO3 [dimer 7]
toxicity to primary normal cervical cells [3]: without being toxic | IC50 [1, 8]: 0.77 nM | times more antimalarially active than artemisinin ([1]; in vitro, P. falciparum NF 54): approximately 10 times | times more potent than trioxane monomer DHA [4]: 110-220 times | IC50 [4]: 46.5 nM | ED50 (GFP strain P. berghei; po, read-out: PO ED50): 2.6 mg/kg | ED50 (GFP strain P. berghei; sc, read-out: SC ED50): 0.06 mg/kg | times more efficacious than sodium artesunate administered PO (GFP strain P. berghei; mice, PO): approximately 1.5 times | overt toxicity / behavioral modification in the mice (GFP strain P. berghei): Neither over toxicity nor behavioral modification was observed

C[C@H]1[C@@H](CCc2cc3c(cc2CC[C@H]2O[C@@H]4O[C@@]5(C)CC[C@H]6[C@H](C)CC[C@@H]([C@H]2C)[C@@]46OO5)COP(=O)(Oc2ccccc2)OC3)O[C@@H]2O[C@@]3(C)CC[C@H]4[C@H](C)CC[C@@H]1[C@@]24OO3 (some centres unmarked) [dimer 9]
IC50 [1]: 3.7 nM

C[C@H]1[C@H](OC(=O)CCC(=O)[O-])O[C@@H]2O[C@@]3(C)CC[C@H]4[C@H](C)CC[C@@H]1[C@@]24OO3.[Na+] [sodium artesunate]
Avg Mouse Survival (oral, 3 × 10 mg/kg) [6]: 6.7 | life of the mice prolonged to ([7]; 30 mg/kg single dose, no drug 7 days): 14 days | malaria parasites killed ([7]; single dose 30 mg/kg, subcutaneous): similarly efficacious | PO ED50 (GFP strain P. berghei; mice, single administration, oral): 4.0 mg/kg | SC ED50 (GFP strain P. berghei; mice, single administration, subcutaneous): 2.2 mg/kg

Source: patent US20090291923A1, “TRIOXANE DIMERS HAVING HIGH ANTICANCER AND LONG-LASTING ANTIMALARIAL ACTIVITIES” (priority 2005, published 2009)
